Measurements reported in the supplement of paper PMC12370961.

Tests used:
Assay in all cases: differential drug sensitivity score (dDSS) relative to sarcoma reference cohort mean DSS (DSS units (0-100 scale difference)); higher = more selective sensitivity than reference sarcomas
Conditions in all cases: exposure time: 72 h; concentration range: 10-10000 nM
CDS-ZH001-2 = test system: CDS-ZH001-2 (patient-derived CIC-DUX4 sarcoma tumoroid)
Procedure: (§1)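 Drug response profiling of patient-derived Ewing sarcoma and CIC::DUX4 sarcoma tumoroid models (or cells tested directly after isolation from the tumor, 'direct'). The DSS is the normalised AUC (0-100); dDSS is the sample DSS minus the mean DSS of a 34-sarcoma reference cohort profiled in the same lab.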

CDS-ZH001 = test system: CDS-ZH001 (patient-derived CIC-DUX4 sarcoma tumoroid)
Procedure: as §1

CDS-ZH002 direct = test system: CDS-ZH002 direct (CIC-DUX4 sarcoma cells right after isolation)
Procedure: as §1

CDS-ZH002 = test system: CDS-ZH002 (patient-derived CIC-DUX4 sarcoma tumoroid)
Procedure: as §1

CDS-ZH003 = test system: CDS-ZH003 (patient-derived CIC-DUX4 sarcoma tumoroid)
Procedure: as §1

ES-ZH001 = test system: ES-ZH001 (patient-derived Ewing sarcoma tumoroid)
Procedure: as §1

ES-ZH002 = test system: ES-ZH002 (patient-derived Ewing sarcoma tumoroid)
Procedure: as §1

ES-ZH004 = test system: ES-ZH004 (patient-derived Ewing sarcoma tumoroid)
Procedure: as §1

ES-ZH007 = test system: ES-ZH007 (patient-derived Ewing sarcoma tumoroid)
Procedure: as §1

ES-ZH008 = test system: ES-ZH008 (patient-derived Ewing sarcoma tumoroid)
Procedure: as §1

ES-ZH009 = test system: ES-ZH009 (patient-derived Ewing sarcoma tumoroid)
Procedure: as §1

ES-ZH016 direct = test system: ES-ZH016 direct (Ewing sarcoma cells right after isolation)
Procedure: as §1

ES-ZH016 = test system: ES-ZH016 (patient-derived Ewing sarcoma tumoroid)
Procedure: as §1

Structure (SMILES)	differential drug sensitivity score (CDS-ZH001-2)	differential drug sensitivity score (CDS-ZH001)	differential drug sensitivity score (CDS-ZH002 direct)	differential drug sensitivity score (CDS-ZH002)	differential drug sensitivity score (CDS-ZH003)	differential drug sensitivity score (ES-ZH001)	differential drug sensitivity score (ES-ZH002)	differential drug sensitivity score (ES-ZH004)	differential drug sensitivity score (ES-ZH007)	differential drug sensitivity score (ES-ZH008)	differential drug sensitivity score (ES-ZH009)	differential drug sensitivity score (ES-ZH016 direct)	differential drug sensitivity score (ES-ZH016)
C=CC(=O)N1CCC[C@@H](n2nc(-c3ccc(Oc4ccccc4)cc3)c3c(N)ncnc32)C1 [Ibrutinib]	-2.7	-2.7	-2.1	-2.7	-2.7	-2.1	0.4	-2.5	-2.7	-2.2	-2.7	1.4	-2.7
NS(=O)(=O)NCCNc1nonc1/C(=N/O)Nc1ccc(F)c(Br)c1 [Epacadostat]	-0.7	-0.7	-0.7	-0.7	0.6	-0.7	-0.2	0	-0.7	5.6	0	-0.5	0.1
C[C@@H]1C[C@H]2[C@@H]3CCC4=CC(=O)C=C[C@]4(C)[C@@]3(F)[C@@H](O)C[C@]2(C)[C@@]1(O)C(=O)CO [Dexamethasone]	-0.5	-0.5	0.6	-0.5	-0.5	-0.5	-0.5	-0.5	-0.5	-0.5	-0.5	-0.5	-0.5
COc1nc(N)nc2c1ncn2[C@@H]1O[C@H](CO)[C@@H](O)[C@@H]1O [Nelarabine]	-2.5	-2.5	-2.5	-2.5	-2.5	3.2	8.4	1	-1.6	5.2	-2.5	-2.5	-2.5
CCN1CCN(Cc2ccc(Nc3ncc(F)c(-c4cc(F)c5nc(C)n(C(C)C)c5c4)n3)nc2)CC1 [Abemaciclib]	-2.7	-2.4	2.2	-2.7	-2.7	8.8	14.7	10.4	5.7	10.7	6.4	-2.7	1.5
CC[C@@H]1C(=O)N(C)c2cnc(Nc3ccc(C(=O)N[C@H]4CC[C@H](N5CCN(CC6CC6)CC5)CC4)cc3OC)nc2N1C(C)C [Volasertib]	13.2	-2.4	-3.8	4	-2.3	10.3	9.4	0.5	2.9	4.5	16.1	16.6	8.9
O=C(Cc1ccc(-c2ccc(OCCN3CCOCC3)cc2)cn1)NCc1ccccc1 [Tirbanibulin]	1.4	8.2	1.7	4	-7.7	9.3	13.5	5.9	4.5	6.4	10.5	7.2	11.4
Nc1cc(C(F)(F)F)c(-c2cc(N3CCOCC3)nc(N3CCOCC3)n2)cn1 [Buparlisib]	2.9	3.3	-2.5	-2.2	6.9	1.5	7.6	-2.2	-0.1	4.6	2.5	0.6	-0.6
Cc1cnc(Nc2ccc(OCCN3CCCC3)cc2)nc1Nc1cccc(S(=O)(=O)NC(C)(C)C)c1 [Fedratinib]	0.2	-0.1	-3.3	-1.7	-2.2	1.8	5.5	-3.2	-1.8	1.5	3.9	-0.1	-1.3
CCN(CC)Cc1ccc2cc(COC(=O)Nc3ccc(C(=O)NO)cc3)ccc2c1 [Givinostat]	2.7	-0.7	1.5	-0.9	-3.4	1.9	5.5	4.2	3.7	5.9	6.8	3.3	3.9
S=P(N1CC1)(N1CC1)N1CC1 [Thiotepa]	0.2	4.6	-4.2	-3.1	9.4	7	11.2	5.2	3.1	8.7	-1.4	17	9.2
FC(F)(F)c1ccc(CNc2ccc(Cc3c[nH]c4ncc(Cl)cc34)cn2)cn1 [Pexidartinib]	0.5	-1.5	5.7	-1.5	-1.3	-1.5	-1.3	0	-1.5	-0.7	-0.8	3.5	0.7
CC(C)C[C@H](NC(=O)[C@@H](NC(=O)c1cccc(-c2ccccc2)n1)[C@@H](C)O)B(O)O [Delanzomib]	4.9	5.4	6.7	1.2	1.1	7.9	9.6	2.1	5.7	5.7	5.8	2.4	0
Clc1ccc(NN=C(c2ccccc2)c2ccccn2)nc1 [JIB04]	0.6	-4.4	-4.8	1.4	-2.7	-6.1	-6	-4.3	0.7	-2.5	-2.6	-0.6	1.5
C[C@@H]1COCCN1c1cc(-c2ccnn2C)c2ccnc(-c3ccn[nH]3)c2n1 [Elimusertib]	11.3	7.3	-5.1	0.9	7.8	7	10.8	9.6	10.1	11.6	10.9	12.4	6.4
